From ChEMBL document CHEMBL1201862, “PubChem BioAssay data set” (2004)
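Values below derive from 48-hour exposures of cells grown in 96-well plates, with endpoints linearly interpolated between the two concentrations bracketing the appropriate inhibition level. At the GI50, growth is halved.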 The source made the active and inactive calls. Rule as the data show it: active = GI50 up to about 1.1 µM and inactive = higher.

Legend:
Experiment in all cases: growth of human tumour cells (NCI), 48 h
HCT-15 = tested on: HCT-15
NCI/ADR-RES = tested on: NCI/ADR-RES
SW-620 = tested on: SW-620
RXF 393 = tested on: RXF 393
A498 = tested on: A498
COLO 205 = tested on: COLO 205
MDA-N = tested on: MDA-N
DMS-114 = tested on: DMS-114
MCF7 = tested on: MCF7
HCC 2998 = tested on: HCC 2998
786-0 = tested on: 786-0
SF-295 = tested on: SF-295
SN12C = tested on: SN12C
MOLT-4 = tested on: MOLT-4
UACC-62 = tested on: UACC-62
A549 = tested on: A549
MDA-MB-435 = tested on: MDA-MB-435
SF-539 = tested on: SF-539
SR = tested on: SR
CCRF-CEM = tested on: CCRF-CEM

For `COc1cc(C2c3cc4c(cc3[C@@H](Nc3ccc(F)cc3)C3COC(=O)[C@H]23)OCO4)cc(OC)c1O` (some centres not stated), the GI50 (HCT-15) was 3.56 µM, the GI50 (NCI/ADR-RES) was 3.97 µM (inactive) and the GI50 (SW-620) was 1.69 µM (inactive). The GI50 (RXF 393) was 3.12 µM (inactive), the GI50 (A498) was 1.89 µM (inactive) and the GI50 (COLO 205) was 2.03 µM (inactive). For the same compound, the GI50 (MDA-N) was 8.93 µM (inactive), the GI50 (DMS-114) was 2.64 µM (inactive) and the GI50 (MCF7) was 0.408 µM (active). For the same compound, the GI50 (HCC 2998) was 3.28 µM (inactive), the GI50 (786-0) was 1.47 µM (inactive) and the GI50 (SF-295) was 0.834 µM (active). For the same compound, the GI50 (SN12C) was 1.57 µM (inactive), the GI50 (MOLT-4) was 0.0535 µM (active) and the GI50 (UACC-62) was 0.841 µM (active). The GI50 (A549) was 0.224 µM (active), the GI50 (MDA-MB-435) was 4.17 µM (inactive) and the GI50 (SF-539) was 1.86 µM (inactive). For the same compound, the GI50 (SR) was 0.106 µM (active).
With `Cc1c2c(c(C)c3c1[nH]c1ccccc13)CN(C)CC2` the GI50 (HCT-15) was 15.3 µM, the GI50 (SW-620) was 15.3 µM (inactive) and the GI50 (RXF 393) was 17.6 µM (inactive). The GI50 (A498) was 19.5 µM (inactive), the GI50 (COLO 205) was 15 µM (inactive) and the GI50 (DMS-114) was 15.1 µM (inactive). The GI50 (HCC 2998) was 16.7 µM (inactive), the GI50 (786-0) was 14.9 µM (inactive) and the GI50 (SF-295) was 17.1 µM (inactive). The GI50 (SN12C) was 20.6 µM (inactive), the GI50 (CCRF-CEM) was 49.4 µM (inactive) and the GI50 (MOLT-4) was 28.7 µM (inactive). For the same compound, the GI50 (UACC-62) was 18 µM (inactive), the GI50 (A549) was 17.9 µM (inactive) and the GI50 (SF-539) was 14.2 µM (inactive). The GI50 (SR) was 24.8 µM (inactive).
In the case of `O=C(Cn1ccnc1[N+](=O)[O-])N(CCO)CCO`, the GI50 (HCT-15) is reported as greater than 250 µM, the GI50 (NCI/ADR-RES) is reported as > 250 µM (inactive) and the GI50 (SW-620) is reported as > 250 µM (inactive). For the same compound, the GI50 (RXF 393) was > 250 µM (inactive), the GI50 (A498) was > 1250 µM (inactive) and the GI50 (COLO 205) was > 1250 µM (inactive). For the same compound, the GI50 (MDA-N) was > 250 µM (inactive), the GI50 (DMS-114) was > 1250 µM (inactive) and the GI50 (MCF7) was > 1250 µM (inactive). For the same compound, the GI50 (HCC 2998) was > 250 µM (inactive), the GI50 (786-0) was > 250 µM (inactive) and the GI50 (SF-295) was > 250 µM (inactive). The GI50 (SN12C) was > 250 µM (inactive), the GI50 (CCRF-CEM) was > 250 µM (inactive) and the GI50 (MOLT-4) was > 250 µM (inactive). The GI50 (UACC-62) was > 250 µM (inactive), the GI50 (A549) was > 250 µM (inactive) and the GI50 (MDA-MB-435) was > 250 µM (inactive). The GI50 (SF-539) was > 250 µM (inactive) and the GI50 (SR) was > 79.1 µM (inactive).
In the case of `Cc1cc(C)cc(NC(N)=S)c1`, the GI50 (HCT-15) is reported as 17.9 µM, the GI50 (SW-620) is reported as 4.06 µM (inactive) and the GI50 (RXF 393) is reported as 20.2 µM (inactive). For the same compound, the GI50 (A498) was > 100 µM (inactive), the GI50 (COLO 205) was 26.7 µM (inactive) and the GI50 (DMS-114) was 45.3 µM (inactive). The GI50 (HCC 2998) was > 100 µM (inactive), the GI50 (786-0) was 92.5 µM (inactive) and the GI50 (SF-295) was > 100 µM (inactive). The GI50 (SN12C) was > 100 µM (inactive), the GI50 (CCRF-CEM) was 19.1 µM (inactive) and the GI50 (MOLT-4) was > 100 µM (inactive). The GI50 (UACC-62) was > 100 µM (inactive), the GI50 (A549) was > 100 µM (inactive) and the GI50 (SF-539) was > 100 µM (inactive). The GI50 (SR) was 33.5 µM (inactive).
For `NC(=O)/C=C/c1c[nH]c2nccnc12`, the GI50 (HCT-15) was 3.27 µM, the GI50 (NCI/ADR-RES) was 2.89 µM (inactive) and the GI50 (SW-620) was 0.891 µM (active). The GI50 (RXF 393) was 1.99 µM (inactive), the GI50 (A498) was 2.58 µM (inactive) and the GI50 (COLO 205) was 1.67 µM (inactive). The GI50 (MDA-N) was 3.81 µM (inactive), the GI50 (DMS-114) was 2.22 µM (inactive) and the GI50 (MCF7) was 3.27 µM (inactive). For the same compound, the GI50 (HCC 2998) was 1.14 µM (inactive), the GI50 (786-0) was 3.34 µM (inactive) and the GI50 (SF-295) was 3.26 µM (inactive). The GI50 (SN12C) was 1.01 µM (active), the GI50 (CCRF-CEM) was 0.656 µM (active) and the GI50 (MOLT-4) was 0.641 µM (active). The GI50 (UACC-62) was 2.76 µM (inactive), the GI50 (A549) was 4.41 µM (inactive) and the GI50 (MDA-MB-435) was 3.59 µM (inactive). For the same compound, the GI50 (SF-539) was 2.24 µM (inactive) and the GI50 (SR) was 1.66 µM (inactive).
For `O=S(=O)(O)c1cc(O)c2c(O)c(/N=N/c3ccc(/C=C/c4ccc(/N=N/c5c(S(=O)(=O)O)cc6cc(S(=O)(=O)O)cc(O)c6c5O)cc4S(=O)(=O)O)c(S(=O)(=O)O)c3)c(S(=O)(=O)O)cc2c1`, the GI50 (HCT-15) was greater than 100 µM, the GI50 (SW-620) was > 100 µM (inactive) and the GI50 (RXF 393) was > 100 µM (inactive). For the same compound, the GI50 (A498) was > 100 µM (inactive), the GI50 (COLO 205) was > 100 µM (inactive) and the GI50 (DMS-114) was 56.6 µM (inactive). For the same compound, the GI50 (HCC 2998) was > 100 µM (inactive), the GI50 (786-0) was > 100 µM (inactive) and the GI50 (SF-295) was > 100 µM (inactive). For the same compound, the GI50 (SN12C) was > 100 µM (inactive), the GI50 (CCRF-CEM) was > 100 µM (inactive) and the GI50 (MOLT-4) was > 100 µM (inactive). The GI50 (UACC-62) was > 100 µM (inactive), the GI50 (A549) was > 100 µM (inactive) and the GI50 (SF-539) was > 100 µM (inactive). For the same compound, the GI50 (SR) was > 100 µM (inactive).
With `CC(C)(c1ccccc1)c1ccc(Oc2ccc(C#N)c(C#N)c2)cc1` the GI50 (HCT-15) was greater than 10 µM, the GI50 (SW-620) was > 100 µM (inactive) and the GI50 (RXF 393) was 92.9 µM (inactive). The GI50 (A498) was > 10 µM (inactive), the GI50 (COLO 205) was > 10 µM (inactive) and the GI50 (DMS-114) was 4.98 µM (inactive). The GI50 (HCC 2998) was > 10 µM (inactive), the GI50 (786-0) was > 10 µM (inactive) and the GI50 (SF-295) was 4.47 µM (inactive). The GI50 (SN12C) was > 10 µM (inactive), the GI50 (CCRF-CEM) was 56.5 µM (inactive) and the GI50 (MOLT-4) was 28.5 µM (inactive). The GI50 (UACC-62) was > 10 µM (inactive), the GI50 (A549) was 27 µM (inactive) and the GI50 (SF-539) was > 10 µM (inactive). For the same compound, the GI50 (SR) was 6.41 µM (inactive).
`COc1cc(CC(C)N)ccc1O` (configuration not stated) was tested, and the GI50 (HCT-15) was greater than 100 µM, the GI50 (NCI/ADR-RES) was > 100 µM (inactive) and the GI50 (SW-620) was > 100 µM (inactive). For the same compound, the GI50 (RXF 393) was > 100 µM (inactive), the GI50 (A498) was > 100 µM (inactive) and the GI50 (COLO 205) was > 100 µM (inactive). The GI50 (MDA-N) was > 100 µM (inactive), the GI50 (DMS-114) was > 100 µM (inactive) and the GI50 (MCF7) was > 100 µM (inactive). For the same compound, the GI50 (HCC 2998) was > 100 µM (inactive), the GI50 (786-0) was > 100 µM (inactive) and the GI50 (SF-295) was > 100 µM (inactive). For the same compound, the GI50 (SN12C) was > 100 µM (inactive), the GI50 (CCRF-CEM) was > 31.6 µM (inactive) and the GI50 (MOLT-4) was > 100 µM (inactive). For the same compound, the GI50 (UACC-62) was > 100 µM (inactive), the GI50 (A549) was > 100 µM (inactive) and the GI50 (SF-539) was > 100 µM (inactive). For the same compound, the GI50 (SR) was > 100 µM (inactive).
`Cc1ccc(NC(=O)CCc2nnc3s/c(=C\C=C\c4ccccc4)c(=O)n23)cc1` was tested, and the GI50 (HCT-15) was greater than 100 µM, the GI50 (NCI/ADR-RES) was 26.5 µM (inactive) and the GI50 (SW-620) was > 100 µM (inactive). For the same compound, the GI50 (RXF 393) was > 81.8 µM (inactive), the GI50 (A498) was > 94.4 µM (inactive) and the GI50 (COLO 205) was > 100 µM (inactive). For the same compound, the GI50 (MDA-N) was > 79.1 µM (inactive), the GI50 (DMS-114) was > 100 µM (inactive) and the GI50 (MCF7) was > 71.4 µM (inactive). The GI50 (HCC 2998) was > 100 µM (inactive), the GI50 (786-0) was > 100 µM (inactive) and the GI50 (SF-295) was > 100 µM (inactive). The GI50 (SN12C) was > 100 µM (inactive), the GI50 (CCRF-CEM) was 27.8 µM (inactive) and the GI50 (MOLT-4) was 30 µM (inactive). The GI50 (UACC-62) was 80.4 µM (inactive), the GI50 (A549) was > 100 µM (inactive) and the GI50 (MDA-MB-435) was > 86.5 µM (inactive). The GI50 (SF-539) was 55.3 µM (inactive) and the GI50 (SR) was 7.29 µM (inactive).
With `CC12c3ccccc3C(OC=O)(c3ccccc31)C1(C)c3ccccc3C2(OC=O)c2ccccc21` the GI50 (HCT-15) was greater than 100 µM, the GI50 (SW-620) was > 100 µM (inactive) and the GI50 (RXF 393) was > 100 µM (inactive). For the same compound, the GI50 (A498) was > 100 µM (inactive), the GI50 (COLO 205) was > 100 µM (inactive) and the GI50 (DMS-114) was > 100 µM (inactive). The GI50 (HCC 2998) was > 100 µM (inactive), the GI50 (786-0) was > 100 µM (inactive) and the GI50 (SF-295) was > 100 µM (inactive). The GI50 (SN12C) was > 100 µM (inactive), the GI50 (CCRF-CEM) was 36.6 µM (inactive) and the GI50 (MOLT-4) was 25.2 µM (inactive). The GI50 (UACC-62) was > 100 µM (inactive), the GI50 (A549) was > 100 µM (inactive) and the GI50 (SR) was 18.4 µM (inactive).
